Values of other authors as cited in article PMC9112550, “Optimization of the antimicrobial peptide Bac7 by deep mutational scanning” (BMC Biology, 2022).

System: Salmonella typhimurium
Settings: 30 mg kg^−1, mice infected with Salmonella typhimurium intraperitoneally
Description: Lastly, it is hard to judge if the activity increase of Bac7PS compared to Bac7_1-23 measured in vitro can be translated to in vivo experiments. […] In our study, all untreated mice already ...

Bac7_1-35: Bac7_1-35 (35 amino acid long) (RRIRPRPPRLPRPRPRPLPFPRPGPRPIPRPLPFP; Bactenecin-7; UniProt P19661 131-165, looked up, fragment)
efficacy: 36%
mean survival (untreated control 10 days): 24.5 days
